Results reported in patent US10150737B2, “Compounds for controlling arthropods” (priority 2013, dated 2018).

Assays:
Spodoptera frugiperda = Spodoptera frugiperda - spray test; assay type: in vivo; conditions: caterpillars on maize leaf discs, after 7 days
Method: (§1) Solvent: 78.0 parts by weight of acetone and 1.5 parts by weight of dimethylformamide
(§2) Emulsifier: alkylaryl polyglycol ether
(§3) To produce an appropriate active ingredient formulation, 1 part by weight of active ingredient is dissolved using the specified parts by weight of solvent and made up with water containing an emulsifier concentration of 1000 ppm until the desired concentration is attained. To produce further test concentrations, the preparation is diluted with emulsifier-containing water.
Leaf discs of maize (Zea mays) are sprayed with an active ingredient formulation of the desired concentration and, after drying, populated with caterpillars of the armyworm (Spodoptera frugiperda).
After 7 days, efficacy in % is determined. 100% means that all the caterpillars have been killed; 0% means that no caterpillars have been killed.

[1] = logP determination by HPLC on a reversed-phase column (C18); assay type: physicochemical; conditions: for logP^a): HPLC-MS method a); for log P: HPLC-MS
Ctenocephalides felis = Ctenocephalides felis - oral test; assay type: in vivo; conditions: application rate 100 ppm in citrated cattle blood; after 2 days
Method: (§4) Solvent: dimethyl sulphoxide
For the purpose of producing an appropriate active ingredient formulation, 10 mg of active ingredient are mixed with 0.5 ml of dimethyl sulphoxide. Dilution with citrated cattle blood gives the desired concentration.
About 20 unfed adult cat fleas (Ctenocephalides felis) are placed into a chamber which is closed at the top and bottom with gauze. A metal cylinder whose bottom end is closed with parafilm is placed onto the chamber. The cylinder contains the blood/active ingredient preparation, which can be imbibed by the fleas through the parafilm membrane.
After 2 days, the kill in % is determined. 100% means that all of the fleas have been killed; 0% means that none of the fleas have been killed.

Lucilia cuprina = Lucilia cuprina test; assay type: in vivo; conditions: application rate 100 ppm; L1 larvae; after 2 days
Method: as §4
(§5) To produce an appropriate active ingredient formulation, 10 mg of active ingredient are mixed with 0.5 ml of dimethyl sulphoxide, and the concentrate is diluted with water to the desired concentration.
About 20 L1 larvae of the Australian sheep blowfly (Lucilia cuprina) are transferred into a test vessel containing minced horsemeat and the active ingredient preparation of the desired concentration.
After 2 days, the kill in % is determined. 100% means that all the larvae have been killed; 0% means that none of the larvae have been killed.

Phaedon cochleariae = Phaedon cochleariae - spray test; assay type: in vivo; conditions: larvae on Chinese cabbage leaf discs, after 7 days
Method: as §1, §2, §3
Discs of Chinese cabbage leaves (Brassica pekinensis) are sprayed with an active ingredient formulation of the desired concentration and, after drying, populated with larvae of the mustard beetle (Phaedon cochleariae).
After 7 days, efficacy in % is determined. 100% means that all the beetle larvae have been killed; 0% means that no beetle larvae have been killed.

Tetranychus urticae = Tetranychus urticae - spray test, OP-resistant; assay type: in vivo; conditions: bean leaf discs, after 6 days
Method: as §1, §2, §3
Discs of bean leaves (Phaseolus vulgaris) infested by all stages of the greenhouse red spider mite (Tetranychus urticae) are sprayed with an active ingredient formulation of the desired concentration.
After 6 days, efficacy in % is determined. 100% means that all the spider mites have been killed; 0% means that none of the spider mites have been killed.

Boophilus microplus = Boophilus microplus - injection test; assay type: in vivo; conditions: application rate 20 μg/animal, injection into engorged adult female ticks, after 7 days
Method: as §4
To produce an appropriate active ingredient formulation, 10 mg of active ingredient are mixed with 0.5 ml of solvent and the concentrate is diluted with solvent to the desired concentration.
1 μl of the active ingredient solution is injected into the abdomen of 5 engorged adult female cattle ticks (Boophilus microplus). The animals are transferred into dishes and kept in a climate-controlled room.
Efficacy is assessed after 7 days by laying of fertile eggs. Eggs which are not visibly fertile are stored in a climate-controlled cabinet until the larvae hatch after about 42 days. An efficacy of 100% means that none of the ticks has laid any fertile eggs; 0% means that all the eggs are fertile.

Musca domestica = Musca domestica test; assay type: in vivo; conditions: application rate 100 ppm; adult houseflies; after 2 days
Method: as §4, §5
Vessels containing a sponge treated with sugar solution and the active ingredient formulation of the desired concentration are populated with 10 adult houseflies (Musca domestica).
After 2 days, the kill in % is determined. 100% means that all of the flies have been killed; 0% means that none of the flies have been killed.

[2] = reversed-phase column (C18), Table I-T3

| Compound | efficacy (Spodoptera frugiperda; application rate 500 g/ha) [%] | logP^a) [1] | logP^a) [1, 2] | efficacy (kill) (Ctenocephalides felis) [%] | efficacy (kill) (Lucilia cuprina) [%] | efficacy (Phaedon cochleariae; application rate 500 g/ha) [%] | efficacy (Tetranychus urticae; application rate 500 g/ha) [%] | efficacy (laying of fertile eggs) (Boophilus microplus) [%] | efficacy (Spodoptera frugiperda; application rate 100 g/ha) [%] | efficacy (Phaedon cochleariae; application rate 100 g/ha) [%] | efficacy (Tetranychus urticae; application rate 100 g/ha) [%] | efficacy (Tetranychus urticae; application rate 20 g/ha) [%] | efficacy (kill) (Musca domestica) [%] | pest or weed control at 0.02 mg (Boophilus microplus; Rhipicephalus microplus, 168 h, read-out: efficacy (laying of fertile eggs)) [%] | logP^a) ([1]; reversed-phase column (C18)) | log P [1, 2] |
| --- | --- | --- | --- | --- | --- | --- | --- | --- | --- | --- | --- | --- | --- | --- | --- | --- |
| Cc1cc(C(F)(C(F)(F)F)C(F)(F)F)cc(C)c1-n1cc(-c2cccc(C(=O)NC3(C#N)CC3)c2F)cn1 [I-T3-10] | 100 | 4.2 | 4.2 | 100 | 100 | 100 | 100 | 100 |  |  |  |  |  |  |  |  |
| Cc1cc(C(F)(C(F)(F)F)C(F)(F)F)cc(C)c1-n1cc(-c2cc(C(=O)NC3(C#N)CC3)c(F)cc2Cl)cn1 [I-T3-12] | 100 | 4.7 | 4.7 | 100 | 80 | 100 |  | 100 |  |  |  |  |  |  |  |  |
| Cc1cc(C(F)(C(F)(F)F)C(F)(F)F)cc(C)c1-n1cc(-c2cc(C(=O)NC3(C#N)CC3)cc(C(F)(F)F)c2)cn1 [I-T3-18] | 100 | 4.7 | 4.7 | 100 | 100 | 100 |  | 100 |  |  |  |  |  |  |  |  |
| O=C(NCC(F)(F)F)c1cc(-c2cnn(-c3ccc(C(F)(C(F)(F)F)C(F)(F)F)cc3OC(F)(F)F)c2)ccc1Cl [I-T3-36] |  | 5.0 | 5.0 | 80 | 100 | 100 |  | 100 |  |  |  |  |  |  |  |  |
| O=C(NC1CSC1)c1cc(-c2cnn(-c3ccc(C(F)(C(F)(F)F)C(F)(F)F)cc3OC(F)(F)F)c2)ccc1Cl [I-T3-37] |  | 4.9 | 4.9 | 90 | 100 | 100 |  | 100 |  |  |  |  |  |  |  |  |
| CCc1cc(C(F)(C(F)(F)F)C(F)(F)F)ccc1-n1cc(-c2ccc(Cl)c(C(=O)NCC(F)(F)F)c2)cn1 [I-T3-40] |  | 4.9 | 4.9 | 100 | 100 |  |  | 100 | 100 | 100 |  |  |  |  |  |  |
| CCc1cc(C(F)(C(F)(F)F)C(F)(F)F)ccc1-n1cc(-c2ccc(Cl)c(C(=O)NC3CSC3)c2)cn1 [I-T3-41] |  | 4.9 | 4.9 | 95 | 90 |  |  | 100 | 100 | 100 | 100 |  |  |  |  |  |
| CCc1cc(C(F)(C(F)(F)F)C(F)(F)F)cc(C)c1-n1cc(-c2ccc(Cl)c(C(=O)NCC(F)(F)F)c2)cn1 [I-T3-45] | 100 | 5.0 | 5.0 | 95 | 100 | 100 | 100 | 100 |  |  |  |  |  |  |  |  |
| N#CC1(NC(=O)c2cc(-c3cnn(-c4c(F)cc(C(F)(F)F)cc4F)c3)ccc2Cl)CC1 [I-T3-49] |  | 3.2 | 3.2 | 100 | 100 |  |  | 100 |  | 100 |  | 100 |  |  |  |  |
| N#CC1(NC(=O)c2cc(-c3cnn(-c4ncc(C(F)(F)F)cc4Cl)c3)ccc2Cl)CC1 [I-T3-59] |  | 3.1 | 3.1 | 100 | 100 |  |  | 100 |  | 100 |  |  |  |  |  |  |
| CCc1cc(C(F)(C(F)(F)F)C(F)(F)F)cc(C)c1-n1cc(-c2cccc(C(=O)NC3(C#N)CC3)c2F)cn1 [I-T3-69] | 100 | 4.3 | 4.5 | 100 | 95 | 100 | 100 | 100 |  |  |  |  |  |  |  |  |
| CCc1cc(C(F)(C(F)(F)F)C(F)(F)F)cc(C)c1-n1cc(-c2cccc(C(=O)NC3CC3)c2F)cn1 [I-T3-70] | 100 | 4.3 | 4.7 | 95 | 100 | 100 | 90 | 100 |  |  |  |  |  |  |  |  |
| CCc1cc(C(F)(C(F)(F)F)C(F)(F)F)ccc1-n1cc(-c2cccc(C(=O)NC3(C#N)CC3)c2F)cn1 [I-T3-74] | 100 | 4.1 | 4.5 |  | 90 | 100 |  | 100 |  |  | 90 |  |  |  |  |  |
| CCc1cc(C(F)(C(F)(F)F)C(F)(F)F)ccc1-n1cc(-c2cccc(C(=O)NC3CC3)c2F)cn1 [I-T3-75] | 100 | 4.2 | 4.7 |  | 80 | 100 | 100 | 90 |  |  |  |  |  |  |  |  |
| CCc1cc(C(F)(C(F)(F)F)C(F)(F)F)ccc1-n1cc(-c2cncc(C(=O)NC3(C#N)CC3)c2)cn1 [I-T3-78] | 100 | 3.2 | 3.8 | 100 | 100 | 100 | 100 | 100 |  |  |  |  |  |  |  |  |
| CCc1cc(C(F)(F)C(F)(F)F)cc(C)c1-n1cc(-c2ccc(Cl)c(C(=O)NCC(F)(F)F)c2)cn1 [I-T3-82] |  | 4.0 | 4.0 | 95 | 100 |  |  | 100 | 100 | 100 | 100 |  |  |  |  |  |
| CCc1cc(C(F)(F)C(F)(F)F)cc(C)c1-n1cc(-c2ccc(Cl)c(C(=O)NC3CSC3)c2)cn1 [I-T3-83] |  | 4.6 | 4.6 | 95 | 100 |  |  | 100 | 100 | 100 | 100 |  |  |  |  |  |
| Cc1cc(C(F)(C(F)(F)F)C(F)(F)F)cc(C)c1-n1cc(-c2ncc(Cl)c(C(=O)NC3CC3)n2)cn1 [I-T3-121, 5-chloro-N-cyclopropyl-2-[1-[2,6-dimethyl-4-[1,2,2,2-tetrafluoro-1-(trifluoromethyl)ethyl]phenyl]pyrazol-4-yl]pyrimidine-4-carboxamide] |  |  |  |  |  |  |  |  |  |  |  |  | 80 | 80 |  |  |
| Cc1cc(C(F)(C(F)(F)F)C(F)(F)F)cc(C)c1-n1cc(-c2cnc(C3CC3)c(C(=O)NC3CC3)c2)cn1 [I-T3-140] |  |  |  | 100 | 100 |  |  | 100 | 100 | 100 |  |  |  |  | 4.2 | 4.2 |
| Cn1ccc(NC(=O)c2cc(-c3cnn(-c4c(Cl)cc(C(F)(F)F)cc4Cl)c3)cnc2Cl)n1 [I-T3-146] |  |  |  | 100 | 90 |  |  | 100 |  |  | 100 |  |  |  | 2.8 | 2.8 |
